Assay results reported in ChEMBL document CHEMBL2151007, “Total Syntheses and Cytotoxicity of (R)- and (S)-Boehmeriasin A” (ACS Med Chem Lett, 2011).

Key:
[1] = Cytotoxicity against human NCI-ADR-RES cells after 48 hrs by Alamar blue assay; assay type: functional, cell-based
MCF7 [2] = experiment: Cytotoxicity against human MCF7 cells; assay type: functional
COLO 205 [3] = experiment: Cytotoxicity against human COLO205 cells after 48 hrs by Alamar blue assay; assay type: functional, cell-based; conditions: COLO 205, 48 h
COLO 205 [4] = experiment: Cytotoxicity against human COLO205 cells; assay type: functional
MCF7 [5] = experiment: Cytotoxicity against human MCF7 cells after 48 hrs by Alamar blue assay; assay type: functional, cell-based; conditions: MCF7, 48 h

| SMILES | IC50 [1] [nM] | GI50 (MCF7 [2]) [nM] | IC50 (COLO 205 [3]) [nM] | GI50 (COLO 205 [4]) [nM] | IC50 (MCF7 [5]) [nM] |
| --- | --- | --- | --- | --- | --- |
| COc1ccc2c3c(c4cc(OC)c(OC)cc4c2c1)CN1CCCC[C@@H]1C3 | 36.7 | 13 | 4.18 | 0.8 | 43.4 |
| COc1ccc2c3c(c4cc(OC)c(OC)cc4c2c1)CN1CCCC[C@H]1C3 | 434 |  | 103 |  | 92.7 |
| CC(=O)O[C@H]1C(=O)[C@@]2(C)[C@H]([C@H](OC(=O)c3ccccc3)[C@]3(O)C[C@H](OC(=O)[C@H](O)[C@@H](NC(=O)c4ccccc4)c4ccccc4)C(C)=C1C3(C)C)[C@]1(OC(C)=O)CO[C@@H]1C[C@@H]2O [PACLITAXEL] | > 6400 |  | 3.31 |  | 1.62 |
